# Results from patent US4826840A, “Cerebral protecting agent” (Taiyo Pharmaceutical Industry Co., Ltd., priority 1987, dated 1989).
# Counter-ions that a name gives are not always drawn.
# What was measured:
# [1] = Protective effect against KCN death; assay type: in vivo, ddY male mice
# [2] = Measurement of LD50; conditions: mouse, in vivo
# Excerpt: ddY male mice having been preliminary bred in the same manner as Example 7 were orally given the test compounds to determine LD50.
# [3] = Effect on brain ischemia model by MgCl2; assay type: in vivo, ddY male mice; conditions: for Survival Time: 2 h before saturated MgCl2 i.v.; for Prolongation of survival time (in words): doses of about 40 mg/kg, oral
# Experimental: ddY male mice (age: 7 weeks) having been preliminary bred in the same manner as in Example 7 were fasted and orally administered with the test compounds dissolved in 0.3%methylcellulose solution. Two (2) hours later, 0.05 ml of saturated solution of MgCl2 was intravenously administered rapidly through the caudal vein. The […] was determined as the period of time until final gasping.
# [4] = Effect on bicuculline convulsion; assay type: in vivo, Wister male rats; conditions: 1 h before bicuculline 1.75 mg/kg i.v.; for Inhibition of the tonic extension (in words): oral
# Experimental: Each test compound was dissolved in 0.5% methylcellulose solution and orally administered to each mouse, and 1 hour later 1.75 mg/kg of bicuculline was given intravenously through caudal vein over the period of 15 seconds. Then, the tonic hindpaw extension was observed.
# [5] = test system: common carotid artery blood flow; experiment: Effect on common carotid artery blood flow; assay type: in vivo, Male adult dogs; conditions: for Increase in CCBF (Δ%): n = 3; for Increase of CCBF (in words): i.v., anesthetized dogs
# Experimental: (§1) Male adult dogs (weight: […]) were used for the experiment after they were preliminary bred in the metal cage for 1 week in a breeding room in which the temperature was controlled at 22±2° C. and the humidity was at 55±10%. They were given pelleted diet (CS, product of Oriental Yeast Co.) and water ad lib. Prior to submitting the animals to the experiment, they were fasted for 21-23 hours.
# (§2) The dogs were anesthetized with sodium pentobarbital and probes for measuring the blood flows were fitted on the right vertebral artery and right common carotid artery. After measuring the control blood flows, the test compounds dissolved in physiological saline were intravenously administered. The vertebral artery blood flow (VBF) and the common carotid artery flow (CCBF) were measured to determine the increments of the blood flow resulting from administration of the test compounds.
# [6] = test system: vertebral artery blood flow; experiment: Effect on vertebral artery blood flow; assay type: in vivo, Male adult dogs; conditions: for Increase in VBF (Δ%): n = 3; for Increase of VBF (in words): i.v., anesthetized dogs
# Experimental: as §1, §2
# [7] = 40 mg/kg p.o., 2 h before KCN 2.1 mg/kg i.v.
smiles,measurement,setting,value
CCCCC1=C(c2ccccc2)c2cc3c(cc2C1N1CCN(CCC)CC1)OCO3 (centres unmarked) [Compound 6b],Rate of Survival (%),[1]; [7],30%
same,Survived Animals/Tested Animals,[1]; [7],3/10
same,LD50,"[2]; oral, ddY male mice",608 mg/kg
CCCCC1=Cc2cc3c(cc2C1N1CCCN(CCC)CC1)OCO3 (centres unmarked) [Compound 4b],Rate of Survival (%),[1]; [7],56%
same,Survived Animals/Tested Animals,[1]; [7],5/9
same,LD50,"[2]; oral, ddY male mice",373 mg/kg
"CCOC(=O)C1=C[C@]2(CC)CCCN3CCc4c(n1c1ccccc41)[C@@H]32 [vinpocetine, reference compound]",Survival Time,[3]; 80 mg/kg oral,22.5 ± 1.1 s
"CCCCC1=Cc2cc3c(cc2C1N1CCN(C)CC1)OCO3 (centres unmarked) [Compound 1c, Dihydrochloride of 1-(4-methylpiperazinyl)-2-n-butyl-5,6-methylenedioxyindene]",Rate of Survival (%),"[1]; mouse, in vivo",78%
same,Survived Animals/Tested Animals,"[1]; mouse, in vivo",7/9
same,Animals Convulsed/Animals Tested,[4]; 1 mg/kg oral,8/10
same,Rate of Convulsion Inhibition (%),[4]; 1 mg/kg oral,20%
same,Animals Convulsed/Animals Tested,[4]; 5 mg/kg oral,5/10
same,Rate of Convulsion Inhibition (%),[4]; 5 mg/kg oral,50%
same,Animals Convulsed/Animals Tested,[4]; 10 mg/kg oral,1/10
same,Rate of Convulsion Inhibition (%),[4]; 10 mg/kg oral,90%
same,Animals Convulsed/Animals Tested,[4]; 15 mg/kg oral,0/10
same,Rate of Convulsion Inhibition (%),[4]; 15 mg/kg oral,100%
same,Inhibition of the tonic extension (in words),[4],inhibited the tonic extension dose-dependency
same,Survival Time,[3]; 40 mg/kg oral,28.8 ± 0.6 s
same,Survival Time,[3]; 80 mg/kg oral,32.3 ± 0.6 s
same,Prolongation of survival time (in words),[3],significant prolongation of survival time dose-dependency
same,Increase in CCBF (Δ%),"[5]; 0.3 mg/kg i.v., 1 min",2.4 ± 1.3 Δ%
same,Increase in CCBF (Δ%),"[5]; 0.3 mg/kg i.v., 2 min",4.5 ± 0.7 Δ%
same,Increase in CCBF (Δ%),"[5]; 0.3 mg/kg i.v., 3 min",4.5 ± 0.7 Δ%
same,Increase in CCBF (Δ%),"[5]; 0.3 mg/kg i.v., 4 min",4.5 ± 0.7 Δ%
same,Increase in CCBF (Δ%),"[5]; 0.3 mg/kg i.v., 5 min",0.8 ± 2.7 Δ%
same,Increase in CCBF (Δ%),"[5]; 0.3 mg/kg i.v., 10 min",0 ± 0 Δ%
same,Increase in CCBF (Δ%),"[5]; 0.3 mg/kg i.v., 15 min",2.2 ± 2.8 Δ%
same,Increase in CCBF (Δ%),"[5]; 1 mg/kg i.v., 1 min",5.2 ± 0.8 Δ%
same,Increase in CCBF (Δ%),"[5]; 1 mg/kg i.v., 2 min",11.9 ± 4.7 Δ%
same,Increase in CCBF (Δ%),"[5]; 1 mg/kg i.v., 3 min",13.9 ± 7.4 Δ%
same,Increase in CCBF (Δ%),"[5]; 1 mg/kg i.v., 4 min",12.8 ± 7.2 Δ%
same,Increase in CCBF (Δ%),"[5]; 1 mg/kg i.v., 5 min",6.4 ± 3.6 Δ%
same,Increase in CCBF (Δ%),"[5]; 1 mg/kg i.v., 10 min",1.1 ± 1.1 Δ%
same,Increase in CCBF (Δ%),"[5]; 1 mg/kg i.v., 15 min",3.6 ± 2.0 Δ%
same,Increase in CCBF (Δ%),"[5]; 3 mg/kg i.v., 1 min",9.5 ± 2.7 Δ%
same,Increase in CCBF (Δ%),"[5]; 3 mg/kg i.v., 2 min",19.0 ± 16.1 Δ%
same,Increase in CCBF (Δ%),"[5]; 3 mg/kg i.v., 3 min",14.1 ± 18.0 Δ%
same,Increase in CCBF (Δ%),"[5]; 3 mg/kg i.v., 4 min",12.7 ± 14.2 Δ%
same,Increase in CCBF (Δ%),"[5]; 3 mg/kg i.v., 5 min",9.3 ± 10.8 Δ%
same,Increase in CCBF (Δ%),"[5]; 3 mg/kg i.v., 10 min",6.1 ± 5.8 Δ%
same,Increase in CCBF (Δ%),"[5]; 3 mg/kg i.v., 15 min",4.9 ± 5.0 Δ%
same,Increase of CCBF (in words),[5],increased VBF and CCBF dose-dependently
same,Increase in VBF (Δ%),"[6]; 0.3 mg/kg i.v., 1 min",6.3 ± 6.3 Δ%
same,Increase in VBF (Δ%),"[6]; 0.3 mg/kg i.v., 2 min",19.7 ± 9.0 Δ%
same,Increase in VBF (Δ%),"[6]; 0.3 mg/kg i.v., 3 min",32.2 ± 15.8 Δ%
same,Increase in VBF (Δ%),"[6]; 0.3 mg/kg i.v., 4 min",26.5 ± 13.2 Δ%
same,Increase in VBF (Δ%),"[6]; 0.3 mg/kg i.v., 5 min",16.1 ± 7.9 Δ%
same,Increase in VBF (Δ%),"[6]; 0.3 mg/kg i.v., 10 min",12.5 ± 12.5 Δ%
same,Increase in VBF (Δ%),"[6]; 0.3 mg/kg i.v., 15 min",15.5 ± 11.3 Δ%
same,Increase in VBF (Δ%),"[6]; 1 mg/kg i.v., 1 min",9.6 ± 5.1 Δ%
same,Increase in VBF (Δ%),"[6]; 1 mg/kg i.v., 2 min",59.6 ± 33.3 Δ%
same,Increase in VBF (Δ%),"[6]; 1 mg/kg i.v., 3 min",74.5 ± 36.3 Δ%
same,Increase in VBF (Δ%),"[6]; 1 mg/kg i.v., 4 min",68.9 ± 39.3 Δ%
same,Increase in VBF (Δ%),"[6]; 1 mg/kg i.v., 5 min",39.2 ± 27.5 Δ%
same,Increase in VBF (Δ%),"[6]; 1 mg/kg i.v., 10 min",14.0 ± 8.5 Δ%
same,Increase in VBF (Δ%),"[6]; 1 mg/kg i.v., 15 min",11.7 ± 9.0 Δ%
same,Increase in VBF (Δ%),"[6]; 3 mg/kg i.v., 1 min",44.2 ± 16.3 Δ%
same,Increase in VBF (Δ%),"[6]; 3 mg/kg i.v., 2 min",154.7 ± 56.5 Δ%
same,Increase in VBF (Δ%),"[6]; 3 mg/kg i.v., 3 min",173.7 ± 61.6 Δ%
same,Increase in VBF (Δ%),"[6]; 3 mg/kg i.v., 4 min",143.6 ± 54.0 Δ%
same,Increase in VBF (Δ%),"[6]; 3 mg/kg i.v., 5 min",111.4 ± 49.6 Δ%
same,Increase in VBF (Δ%),"[6]; 3 mg/kg i.v., 10 min",65.8 ± 30.5 Δ%
same,Increase in VBF (Δ%),"[6]; 3 mg/kg i.v., 15 min",37.5 ± 18.4 Δ%
same,Increase of VBF (in words),[6],increased VBF and CCBF dose-dependently
same,LD50,[2]; po,368 mg/kg
CCCCC1=Cc2cc3c(cc2C1N1CCN(CCCC)CC1)OCO3 (centres unmarked) [Compound 3b],Rate of Survival (%),[1]; [7],33%
same,Survived Animals/Tested Animals,[1]; [7],3/9
same,LD50,"[2]; oral, ddY male mice",430 mg/kg
CCCCC1=Cc2cc3c(cc2C1N1CCN(CCC)CC1)OCO3 (centres unmarked) [Compound 2b],Rate of Survival (%),"[1]; mouse, in vivo",50%
same,Survived Animals/Tested Animals,"[1]; mouse, in vivo",5/10
same,Animals Convulsed/Animals Tested,[4]; 5 mg/kg oral,6/10
same,Rate of Convulsion Inhibition (%),[4]; 5 mg/kg oral,40%
same,Animals Convulsed/Animals Tested,[4]; 10 mg/kg oral,5/10
same,Rate of Convulsion Inhibition (%),[4]; 10 mg/kg oral,50%
same,Animals Convulsed/Animals Tested,[4]; 15 mg/kg oral,2/10
same,Rate of Convulsion Inhibition (%),[4]; 15 mg/kg oral,80%
same,Animals Convulsed/Animals Tested,[4]; 20 mg/kg oral,0/10
same,Rate of Convulsion Inhibition (%),[4]; 20 mg/kg oral,100%
same,Inhibition of the tonic extension (in words),[4],inhibited the tonic extension dose-dependency
same,Survival Time,[3]; 40 mg/kg oral,28.3 ± 1.5 s
same,Survival Time,[3]; 80 mg/kg oral,32.4 ± 1.5 s
same,Prolongation of survival time (in words),[3],significant prolongation of survival time dose-dependency
same,Increase in CCBF (Δ%),"[5]; 1 mg/kg i.v., 1 min",1.5 ± 1.5 Δ%
same,Increase in CCBF (Δ%),"[5]; 1 mg/kg i.v., 2 min",5.2 ± 1.6 Δ%
same,Increase in CCBF (Δ%),"[5]; 1 mg/kg i.v., 3 min",2.4 ± 1.2 Δ%
same,Increase in CCBF (Δ%),"[5]; 1 mg/kg i.v., 4 min",1.4 ± 1.4 Δ%
same,Increase in CCBF (Δ%),"[5]; 1 mg/kg i.v., 5 min",-1.0 ± 1.0 Δ%
same,Increase in CCBF (Δ%),"[5]; 3 mg/kg i.v., 1 min",7.1 ± 5.6 Δ%
same,Increase in CCBF (Δ%),"[5]; 3 mg/kg i.v., 2 min",9.8 ± 7.4 Δ%
same,Increase in CCBF (Δ%),"[5]; 3 mg/kg i.v., 3 min",4.6 ± 4.8 Δ%
same,Increase in CCBF (Δ%),"[5]; 3 mg/kg i.v., 4 min",-1.8 ± 4.3 Δ%
same,Increase in CCBF (Δ%),"[5]; 3 mg/kg i.v., 5 min",-5.9 ± 2.1 Δ%
same,Increase of CCBF (in words),[5],increased VBF and CCBF dose-dependently
same,Increase in VBF (Δ%),"[6]; 1 mg/kg i.v., 1 min",7.2 ± 4.9 Δ%
same,Increase in VBF (Δ%),"[6]; 1 mg/kg i.v., 2 min",18.6 ± 7.4 Δ%
same,Increase in VBF (Δ%),"[6]; 1 mg/kg i.v., 3 min",24.6 ± 8.3 Δ%
same,Increase in VBF (Δ%),"[6]; 1 mg/kg i.v., 4 min",17.6 ± 8.8 Δ%
same,Increase in VBF (Δ%),"[6]; 1 mg/kg i.v., 5 min",3.7 ± 3.7 Δ%
same,Increase in VBF (Δ%),"[6]; 3 mg/kg i.v., 1 min",43.1 ± 28.5 Δ%
same,Increase in VBF (Δ%),"[6]; 3 mg/kg i.v., 2 min",74.3 ± 23.3 Δ%
same,Increase in VBF (Δ%),"[6]; 3 mg/kg i.v., 3 min",78.2 ± 28.2 Δ%
same,Increase in VBF (Δ%),"[6]; 3 mg/kg i.v., 4 min",40.5 ± 21.1 Δ%
same,Increase in VBF (Δ%),"[6]; 3 mg/kg i.v., 5 min",18.5 ± 12.7 Δ%
same,Increase of VBF (in words),[6],increased VBF and CCBF dose-dependently
same,LD50,[2]; po,450 mg/kg
"COC(=O)C1=C(C)NC(C)=C(C(=O)OCCN(C)Cc2ccccc2)C1c1cccc([N+](=O)[O-])c1 (centres unmarked) [nicardipine, reference compound]",Survival Time,[3]; 80 mg/kg oral,24.3 ± 1.0 s
CCCCC1=C(C)c2cc3c(cc2C1N1CCN(CCC)CC1)OCO3 (centres unmarked) [Compound 5b],Rate of Survival (%),[1]; [7],56%
same,Survived Animals/Tested Animals,[1]; [7],5/9
same,LD50,"[2]; oral, ddY male mice",510 mg/kg
